This is an account of results in patent US20210395239A1 (Hoffmann-La Roche Inc., priority 2018, published 2021).

By inhibition is commonly meant the drop in the measured response relative to a control, in per cent.

The structures appear in SMILES notation.

For the first data set, the target named is T1, CYP3A4 (Homo sapiens, UniProt P08684).
T1 construct: tissue BD-Gentest 452117; host or cells: human liver microsomes
T1 sequence (P08684 whole entry): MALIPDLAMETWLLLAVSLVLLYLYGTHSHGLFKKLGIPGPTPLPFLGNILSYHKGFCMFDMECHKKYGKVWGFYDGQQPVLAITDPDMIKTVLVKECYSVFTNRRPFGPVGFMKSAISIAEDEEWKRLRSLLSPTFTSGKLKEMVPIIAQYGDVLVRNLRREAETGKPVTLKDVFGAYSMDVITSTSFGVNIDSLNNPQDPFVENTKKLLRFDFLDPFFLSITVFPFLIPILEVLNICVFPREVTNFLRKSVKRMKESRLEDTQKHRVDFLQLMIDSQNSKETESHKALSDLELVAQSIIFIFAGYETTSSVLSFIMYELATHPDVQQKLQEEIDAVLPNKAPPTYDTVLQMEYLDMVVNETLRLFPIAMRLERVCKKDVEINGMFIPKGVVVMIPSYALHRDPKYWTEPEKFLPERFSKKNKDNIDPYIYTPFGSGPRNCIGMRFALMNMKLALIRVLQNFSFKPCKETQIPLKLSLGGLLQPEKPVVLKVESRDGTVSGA
The data set is described as follows: CYP inhibition assay in human liver microsome, CYP3A4. The class given is in vitro ADME. Conditions: human, human liver microsomes, probe midazolam 5 μM, substrate midazolam 5 μM, third value of 2C9/2D6/3A4. A digest of the protocol: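 Pooled human liver microsomes with a substrate for each CYP were incubated with compound at 37 °C after NADPH addition, for 5 min (CYP2D6: 10 min), then quenched with acetonitrile containing labelled metabolite standards. Metabolite/internal-standard peak area ratios were measured by RapidFire MS/MS. % inhibition was scaled between DMSO and standard-inhibitor controls.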
Background: Liver microsomes are a subcellular fraction often used to study metabolism.
For `C[C@@H]1CN(c2ccc(C#N)c3ncccc23)C[C@H](CN2CCN(c3ccnc(N4CCNCC(O)C4)n3)CC2)O1` (stereo partly drawn) [Example 25, 5-[(2S,6R)-2-[[4-[2-(6-hydroxy-1,4-diazepan-1-yl)pyrimidin-4-yl]piperazin-1-yl]methyl]-6-methyl-morpholin-4-yl]quinoline-8-carbonitrile], the inhibition at 5 min, 10 µM is -4%.
Turning to `COC1CN(c2ccc(N3CCN(C[C@H]4CN(c5ccc(C#N)c6ncccc56)C[C@@H](C)O4)CC3)cn2)CC1N` (stereo partly drawn) [Example 43, 5-[(2S,6R)-2-[[4-[6-(3-amino-4-methoxy-pyrrolidin-1-yl)-3-pyridyl]piperazin-1-yl]methyl]-6-methyl-morpholin-4-yl]quinoline-8-carbonitrile], the inhibition at 5 min, 10 µM stood at 16%.

The target of the next data set is T2, hTLR9 (Homo sapiens, UniProt Q9NR96).
T2 sequence (Q9NR96 26-1032): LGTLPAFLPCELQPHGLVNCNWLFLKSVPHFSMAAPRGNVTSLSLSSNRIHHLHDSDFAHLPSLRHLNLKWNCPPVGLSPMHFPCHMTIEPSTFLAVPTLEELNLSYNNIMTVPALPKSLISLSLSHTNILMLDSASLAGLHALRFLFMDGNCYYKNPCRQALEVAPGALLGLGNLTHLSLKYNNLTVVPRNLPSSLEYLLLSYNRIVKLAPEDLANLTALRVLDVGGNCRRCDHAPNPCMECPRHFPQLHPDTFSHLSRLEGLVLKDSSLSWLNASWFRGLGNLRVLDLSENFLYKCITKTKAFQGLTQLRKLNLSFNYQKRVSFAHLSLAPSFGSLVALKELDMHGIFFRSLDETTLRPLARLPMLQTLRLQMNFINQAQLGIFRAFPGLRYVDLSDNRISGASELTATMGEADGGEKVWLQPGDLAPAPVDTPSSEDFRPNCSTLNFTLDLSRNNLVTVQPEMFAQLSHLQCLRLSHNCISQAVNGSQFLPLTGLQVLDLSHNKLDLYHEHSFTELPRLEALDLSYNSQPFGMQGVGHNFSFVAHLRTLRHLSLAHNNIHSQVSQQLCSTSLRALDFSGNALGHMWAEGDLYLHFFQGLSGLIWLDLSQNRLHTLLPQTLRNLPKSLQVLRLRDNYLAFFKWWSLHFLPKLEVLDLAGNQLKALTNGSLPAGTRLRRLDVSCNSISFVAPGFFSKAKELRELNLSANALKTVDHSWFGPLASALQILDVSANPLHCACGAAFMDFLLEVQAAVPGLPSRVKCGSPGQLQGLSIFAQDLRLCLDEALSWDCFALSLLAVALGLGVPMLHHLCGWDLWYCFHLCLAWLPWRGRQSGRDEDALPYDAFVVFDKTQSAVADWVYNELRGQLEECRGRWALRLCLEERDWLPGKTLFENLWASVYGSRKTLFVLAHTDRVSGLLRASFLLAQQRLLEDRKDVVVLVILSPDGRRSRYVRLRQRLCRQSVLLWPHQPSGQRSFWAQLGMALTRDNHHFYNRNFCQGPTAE
The experiment in a line: HEK293-Blue-hTLR-9 cells assay (SEAP reporter, ODN2006 stimulation). Format: cell-based. Further details: host or cells: HEK293 (HEK-Blue hTLR9). The conditions noted are these: HEK293-Blue-hTLR9 cells, ODN2006, 20 hrs; read-out: HEK/hTLR9 IC50. Put shortly:
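HEK293-Blue-hTLR9 cells with NF-κB/AP-1-driven SEAP reporter treated with serially diluted compound (1% DMSO final) plus ODN2006 for 20 h at 37 °C. Supernatant SEAP measured with QUANTI-Blue, 2 h at 37 °C, absorbance 620–655 nm; antagonism seen as reduced reporter signal.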
Take `C[C@@H]1CN(c2ccc(C#N)c3ncccc23)C[C@H](CN2CCN(c3ccnc(N4CCNCC(O)C4)n3)CC2)O1` (stereo partly drawn) [Example 25, 5-[(2S,6R)-2-[[4-[2-(6-hydroxy-1,4-diazepan-1-yl)pyrimidin-4-yl]piperazin-1-yl]methyl]-6-methyl-morpholin-4-yl]quinoline-8-carbonitrile]: the IC50 came to 33 nM.
On to `COC1CN(c2ccc(N3CCN(C[C@H]4CN(c5ccc(C#N)c6ncccc56)C[C@@H](C)O4)CC3)cn2)CC1N` (stereo partly drawn) [Example 43, 5-[(2S,6R)-2-[[4-[6-(3-amino-4-methoxy-pyrrolidin-1-yl)-3-pyridyl]piperazin-1-yl]methyl]-6-methyl-morpholin-4-yl]quinoline-8-carbonitrile], for which the IC50 worked out at 119 nM.
With `C[C@@H]1CN(c2ccc(C#N)n3ncc(F)c23)C[C@H](CN2CCN(c3ccc([C@@H]4CNCCO4)c(F)c3)CC2)O1` [Example 184, 3-fluoro-4-[(2S,6R)-2-[[4-[3-fluoro-4-[(2R)-morpholin-2-yl]phenyl]piperazin-1-yl]methyl]-6-methyl-morpholin-4-yl]pyrazolo[1,5-a]pyridine-7-carbonitrile], the IC50 amounted to 124 nM.
Still for that read-out and setting: then `Cc1cc(N2CCN(C[C@H]3CN(c4ccc(C#N)c5ncccc45)C[C@@H](C)O3)CC2)nc(N2CCNCC2)n1` [Example 47, 5-[(2R,6S)-2-methyl-6-[[4-(6-methyl-2-piperazin-1-yl-pyrimidin-4-yl)piperazin-1-yl]methyl]morpholin-4-yl]quinoline-8-carbonitrile], with 67 nM; and `C[C@@H]1CN(c2ccc(C#N)c3ncccc23)C[C@H](CN2CCN(c3ncc(C#N)c(N4CCNCC4)n3)CC2)O1` [Example 51, 5-[(2S,6R)-2-[[4-(5-cyano-4-piperazin-1-yl-pyrimidin-2-yl)piperazin-1-yl]methyl]-6-methyl-morpholin-4-yl]quinoline-8-carbonitrile], with 121 nM.
In the case of `COC1CN(c2ccc(C3CN(C[C@H]4CN(c5cc(=O)n(C)c6ncccc56)C[C@@H](C)O4)C3)cc2)C[C@H]1N` (stereo in doubt) [Example 172, 4-[(2S,6R)-2-[[3-[4-[(3R,4R)-3-amino-4-methoxy-pyrrolidin-1-yl]phenyl]azetidin-1-yl]methyl]-6-methyl-morpholin-4-yl]-1-methyl-1,8-naphthyridin-2-one], the IC50 came to 57 nM.
Still for that read-out and setting: with `C[C@@H]1CN(c2ccc(C#N)c3ncccc23)C[C@H](CN2CCN(c3cccc(N4CCNCC4)n3)CC2)O1` [Example 10, 5-[(2R,6S)-2-methyl-6-[[4-(6-piperazin-1-yl-2-pyridyl)piperazin-1-yl]methyl]morpholin-4-yl]quinoline-8-carbonitrile] the figure was 105 nM.
As for `C[C@@H]1CN(c2ccc(C#N)n3ncc(F)c23)C[C@H](CN2CCN(c3ccc(C4CNCCO4)cc3F)CC2)O1` (stereo in doubt) [Example 183, 3-fluoro-4-[(2S,6R)-2-[[4-[2-fluoro-4-[(2S)-morpholin-2-yl]phenyl]piperazin-1-yl]methyl]-6-methyl-morpholin-4-yl]pyrazolo[1,5-a]pyridine-7-carbonitrile], the IC50 was 120 nM.
On the same count and under the same terms, then `C[C@@H]1CN(c2ccc(C#N)c3ncccc23)C[C@H](CN2CCN(c3cccc(N[C@H]4CNC[C@@H]4F)n3)CC2)O1` [Example 35, 5-[(2S,6R)-2-[[4-[6-[[(3S,4S)-4-fluoropyrrolidin-3-yl]amino]-2-pyridyl]piperazin-1-yl]methyl]-6-methyl-morpholin-4-yl]quinoline-8-carbonitrile], with 147 nM; and `C[C@@H]1CN(c2ccc(C#N)n3ncc(F)c23)C[C@H](CN2CCN(c3ccc(C4(C)CNCCO4)cc3)CC2)O1` (stereo partly drawn) [Example 185, 3-fluoro-4-[(2R,6S)-2-methyl-6-[[4-[4-(2-methylmorpholin-2-yl)phenyl]piperazin-1-yl]methyl]morpholin-4-yl]pyrazolo[1,5-a]pyridine-7-carbonitrile], with 186 nM.
With `C[C@@H]1CN(c2ccc(C#N)n3ncc(F)c23)C[C@H](CN2CCN(c3ccc(N4CCOC5(CNC5)C4)nc3)CC2)O1` [Example 178, 3-fluoro-4-[(2R,6S)-2-methyl-6-[[4-[6-(5-oxa-2,8-diazaspiro[3.5]nonan-8-yl)-3-pyridyl]piperazin-1-yl]methyl]morpholin-4-yl]pyrazolo[1,5-a]pyridine-7-carbonitrile], the IC50 came to 116 nM.
On the same count and under the same terms, then `C[C@@H]1CN(c2ccc(C#N)c3ncccc23)C[C@H](CN2CCN(c3ccnc(N4CCN(C(=O)[C@@H]5CCCN5)CC4)n3)CC2)O1` [Example 31, 5-[(2R,6S)-2-methyl-6-[[4-[2-[4-[(2S)-pyrrolidine-2-carbonyl]piperazin-1-yl]pyrimidin-4-yl]piperazin-1-yl]methyl]morpholin-4-yl]quinoline-8-carbonitrile], with 46 nM.
With `Cc1nc(N2CCNCC2)nc(N2CCN(C[C@H]3CN(c4ccc(C#N)c5ncccc45)C[C@@H](C)O3)CC2)c1C` [Example 46, 5-[(2S,6R)-2-[[4-(5,6-dimethyl-2-piperazin-1-yl-pyrimidin-4-yl)piperazin-1-yl]methyl]-6-methyl-morpholin-4-yl]quinoline-8-carbonitrile], the IC50 is 157 nM.
Same read-out and setting: then `C[C@@H]1CN(c2cc(=O)n(C)c3ncccc23)C[C@H](CN2CC(c3ccc(N4CCNCC4)cc3)C2)O1` [Example 171, 1-methyl-4-[(2R,6S)-2-methyl-6-[[3-(4-piperazin-1-ylphenyl)azetidin-1-yl]methyl]morpholin-4-yl]-1,8-naphthyridin-2-one], with 35 nM; and `C[C@@H]1CN(c2cc(=O)n(C)c3ncccc23)C[C@H](CN2CC(c3ccc(N4CC5(CN(C)C5)C4)cc3)C2)O1` [Example 180, 1-methyl-4-[(2R,6S)-2-methyl-6-[[3-[4-(6-methyl-2,6-diazaspiro[3.3]heptan-2-yl)phenyl]azetidin-1-yl]methyl]morpholin-4-yl]-1,8-naphthyridin-2-one], with 41 nM; and `Cc1cc(N2CCN(C[C@H]3CN(c4ccc(C#N)c5ncccc45)C[C@@H](C)O3)CC2)nc(N2CC3(CNCCO3)C2)n1` [Example 61, 5-[(2R,6S)-2-methyl-6-[[4-[6-methyl-2-(5-oxa-2,8-diazaspiro[3.5]nonan-2-yl)pyrimidin-4-yl]piperazin-1-yl]methyl]morpholin-4-yl]quinoline-8-carbonitrile], with 32 nM.
Same read-out and setting: with `C[C@@H]1CN(c2ccc(C#N)c3ncccc23)C[C@H](CN2CCN(c3ccc(N4CC(N)C(F)C4)nc3)CC2)O1` (stereo partly drawn) [Example 44, 5-[(2S,6R)-2-[[4-[6-(3-amino-4-fluoro-pyrrolidin-1-yl)-3-pyridyl]piperazin-1-yl]methyl]-6-methyl-morpholin-4-yl]quinoline-8-carbonitrile] the figure was 164 nM; with `C[C@@H]1CN(c2ccc(C#N)c3ncccc23)C[C@H](CN2CCN(c3nc(N4CCNCC4)nc4ccccc34)CC2)O1` [Example 49, 5-[(2R,6S)-2-methyl-6-[[4-(2-piperazin-1-ylquinazolin-4-yl)piperazin-1-yl]methyl]morpholin-4-yl]quinoline-8-carbonitrile], 146 nM.
